# From patent US6737383B1, “Herbicidal oxadiazolidines” (priority 1999, dated 2004)
# Legend:
# wheat = assay: Test B pre/postemergence wheat; assay type: in vivo, Triticum aestivum; settings: for Plant response rating, Wheat: Rate 250 g/ha
# Outline: (§1)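 Test chemicals in a non-phytotoxic solvent mixture with surfactant were sprayed preemergence onto planted seeds and postemergence onto plants 2 to 18 cm tall (1- to 4-leaf stage). After twelve to sixteen days in a greenhouse, injury was visually rated against untreated controls from 0 (no effect) to 10 (complete control).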
# surinam grass = assay: Test B pre/postemergence surinam grass; assay type: in vivo, Brachiaria decumbens
# Outline: as §1
# velvetleaf = assay: Test B pre/postemergence velvetleaf; assay type: in vivo, Abutilon theophrasti; settings: for Plant response rating, Velvetleaf: Rate 250 g/ha
# Outline: as §1
# corn = assay: Test B pre/postemergence corn; assay type: in vivo, Zea mays
# Outline: as §1
# smallflower flatsedge = assay: Test B flood test smallflower flatsedge; assay type: in vivo, Cyperus difformis
# Outline: (§2)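 Each value is a visual injury score relative to controls, with 10 meaning complete control and 0 no effect. Evaluation took place twelve to sixteen days after the 2-leaf-stage plants were treated and kept in the greenhouse.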
# bamyardgrass = assay: Test B flood test barnyardgrass; assay type: in vivo, Echinochloa crus-galli
# Outline: as §2
# morningglory = assay: Test B pre/postemergence morningglory; assay type: in vivo, Ipomoea hederacea
# Outline: as §1
# wild oat = assay: Test B pre/postemergence wild oat; assay type: in vivo, Avena fatua; settings: for Plant response rating, Wild oats: Rate 250 g/ha
# Outline: as §1
# cocklebur = assay: Test B pre/postemergence cocklebur; assay type: in vivo, Xanthium strumarium
# Outline: as §1
# crabgrass = assay: Test B pre/postemergence crabgrass; assay type: in vivo, Digitaria sanguinalis
# Outline: as §1
# bedstraw = assay: Test B pre/postemergence bedstraw; assay type: in vivo, Galium aparine
# Outline: as §1
# blackgrass = assay: Test B pre/postemergence blackgrass; assay type: in vivo, Alopecurus myosuroides
# Outline: as §1
# purple nutsedge = assay: Test B pre/postemergence purple nutsedge; assay type: in vivo, Cyperus rotundus
# Outline: as §1
# giant foxtail = assay: Test B pre/postemergence giant foxtail; assay type: in vivo, Setaria faberii
# Outline: as §1
# duck salad = assay: Test B flood test duck salad; assay type: in vivo, Heteranthera limosa
# Outline: as §2
# rice = assay: Test B flood test rice; assay type: in vivo, Oryza sativa
# Outline: as §2
# [1] = Postemergence, Rate 62 g/ha, scale 0 to 10, 0 is no effect, 10 is complete control
# [2] = Postemergence, Rate 125 g/ha, scale of 0 to 10 where 0 is no effect and 10 is complete control
# [3] = Preemergence, Rate 31 g/ha, visual rating, scale 0 to 10 (0 no effect, 10 complete control)
# [4] = Preemergence, Rate 62 g/ha, scale 0 to 10 (0 no effect, 10 complete control)
# [5] = Preemergence, Rate 125 g/ha, 0 is no effect, 10 is complete control
# [6] = Preemergence, scale of 0 to 10 where 0 is no effect and 10 is complete control
# [7] = Postemergence, scale 0 to 10, 0 is no effect, 10 is complete control
# [8] = Postemergence, Rate 250 g/ha, scale 0 to 10, 0 no effect, 10 complete control
# [9] = Preemergence, Rate 125 g/ha, scale 0 to 10 (0 no effect, 10 complete control)
# [10] = Preemergence, Rate 250 g/ha, scale of 0 to 10 where 0 is no effect and 10 is complete control
# [11] = Rate 31 g/ha, Postemergence, scale 0 to 10
# [12] = Postemergence (flood test species), Rate 125 g/ha, scale of 0 to 10 where 0 is no effect and 10 is complete control
# [13] = Rate 250 g/ha, Postemergence (flood test), scale 0 to 10, 0 is no effect, 10 is complete control
# [14] = Rate 31 g/ha, Postemergence section (flood test species), scale 0 to 10
# [15] = flood test, listed under Postemergence, Rate 250 g/ha, scale 0 to 10, 0 no effect, 10 complete control
smiles,measurement,setting,value
CC(C)N(C(=O)n1oc(=O)n(-c2cnn(C)c2)c1=O)c1ccc(F)cc1 [Compound 98],Wheat plant response rating,wheat; [1],0
same,Wheat plant response rating,wheat; [2],0
same,Wheat plant response rating,wheat; [3],0
same,Wheat plant response rating,wheat; [4],0
same,Wheat plant response rating (0 to 10 scale),wheat; [5],0
same,"Plant response rating, Wheat",wheat; [6],1
same,"Plant response rating, Wheat",wheat; [7],0
same,B. signalgrass plant response rating,surinam grass; [1],0
same,B. signalgrass plant response rating,surinam grass; [8],0
same,B. signalgrass plant response rating,surinam grass; [3],0
same,B. signalgrass plant response rating,surinam grass; [4],0
same,"Plant response rating, B. signalgrass",surinam grass; [9],0
same,"Plant response rating, B. signalgrass",surinam grass; [10],0
same,B. signalgrass plant response rating,surinam grass; [11],0
same,B. signalgrass plant response rating,"surinam grass; Rate 125 g/ha, Postemergence, scale 0 to 10, 0 no effect, 10 complete control",0
same,Velvetleaf plant response rating,velvetleaf; [1],0
same,Velvetleaf plant response rating,velvetleaf; [2],0
same,Velvetleaf plant response rating,velvetleaf; [3],0
same,Velvetleaf plant response rating,velvetleaf; [4],0
same,Velvetleaf plant response rating (0 to 10 scale),velvetleaf; [5],0
same,"Plant response rating, Velvetleaf",velvetleaf; [6],2
same,"Plant response rating, Velvetleaf",velvetleaf; [7],0
same,Corn plant response rating,corn; [1],0
same,Corn plant response rating,corn; [2],0
same,Corn plant response rating,corn; [8],0
same,Corn plant response rating,corn; [3],0
same,Corn plant response rating,corn; [4],0
same,"Plant response rating, Corn",corn; [9],0
same,"Plant response rating, Corn",corn; [10],0
same,Corn plant response rating,corn; [11],0
same,S. Flatsedge plant response rating,smallflower flatsedge; [12],8
same,S. Flatsedge plant response rating,smallflower flatsedge; [1],0
same,"Plant response rating, S. Flatsedge",smallflower flatsedge; [13],8
same,Barnyardgrass plant response rating,bamyardgrass; [1],5
same,Barnyardgrass plant response rating,bamyardgrass; [14],3
same,Barnyardgrass plant response rating,"bamyardgrass; Rate 125 g/ha, Postemergence section (flood test species), scale 0 to 10, 0 no effect, 10 complete control",9
same,Barnyardgrass plant response rating,bamyardgrass; [15],9
same,Morningglory plant response rating,morningglory; [1],0
same,Morningglory plant response rating,morningglory; [2],0
same,Morningglory plant response rating,morningglory; [8],2
same,Morningglory plant response rating,morningglory; [3],0
same,Morningglory plant response rating,morningglory; [4],0
same,"Plant response rating, Morningglory",morningglory; [9],0
same,"Plant response rating, Morningglory",morningglory; [10],0
same,Morningglory plant response rating,morningglory; [11],0
same,Wild oats plant response rating,wild oat; [1],0
same,Wild oats plant response rating,wild oat; [2],0
same,Wild oats plant response rating,wild oat; [3],0
same,Wild oats plant response rating,wild oat; [4],0
same,Wild oats plant response rating (0 to 10 scale),wild oat; [5],0
same,"Plant response rating, Wild oats",wild oat; [6],2
same,"Plant response rating, Wild oats",wild oat; [7],0
same,Cocklebur plant response rating,cocklebur; [1],0
same,Cocklebur plant response rating,cocklebur; [2],0
same,Cocklebur plant response rating,cocklebur; [8],0
same,Cocklebur plant response rating,cocklebur; [3],0
same,Cocklebur plant response rating,cocklebur; [4],0
same,"Plant response rating, Cocklebur",cocklebur; [9],0
same,"Plant response rating, Cocklebur",cocklebur; [10],0
same,Cocklebur plant response rating,cocklebur; [11],0
same,Crabgrass plant response rating,crabgrass; [1],0
same,Crabgrass plant response rating,crabgrass; [2],0
same,Crabgrass plant response rating,crabgrass; [8],2
same,Crabgrass plant response rating,crabgrass; [3],2
same,Crabgrass plant response rating,crabgrass; [4],4
same,"Plant response rating, Crabgrass",crabgrass; [9],7
same,"Plant response rating, Crabgrass",crabgrass; [10],8
same,Crabgrass plant response rating,crabgrass; [11],0
same,Bedstraw plant response rating,bedstraw; [1],0
same,Bedstraw plant response rating,bedstraw; [3],0
same,Bedstraw plant response rating,bedstraw; [4],0
same,"Plant response rating, Bedstraw",bedstraw; [9],0
same,"Plant response rating, Bedstraw",bedstraw; [10],0
same,Bedstraw plant response rating,bedstraw; [11],0
same,Blackgrass plant response rating,blackgrass; [1],0
same,Blackgrass plant response rating,blackgrass; [2],0
same,Blackgrass plant response rating,blackgrass; [8],0
same,Blackgrass plant response rating,blackgrass; [3],0
same,Blackgrass plant response rating,blackgrass; [4],2
same,"Plant response rating, Blackgrass",blackgrass; [9],6
same,"Plant response rating, Blackgrass",blackgrass; [10],8
same,Blackgrass plant response rating,blackgrass; [11],0
same,Nutsedge plant response rating,purple nutsedge; [1],0
same,Nutsedge plant response rating,purple nutsedge; [2],0
same,Nutsedge plant response rating,purple nutsedge; [8],0
same,Nutsedge plant response rating,purple nutsedge; [3],0
same,Nutsedge plant response rating,purple nutsedge; [4],0
same,"Plant response rating, Nutsedge",purple nutsedge; [9],0
same,"Plant response rating, Nutsedge",purple nutsedge; [10],0
same,Nutsedge plant response rating,purple nutsedge; [11],0
same,Giant foxtail plant response rating,giant foxtail; [1],0
same,Giant foxtail plant response rating,giant foxtail; [2],0
same,Giant foxtail plant response rating,giant foxtail; [8],2
same,Giant foxtail plant response rating,giant foxtail; [3],4
same,Giant foxtail plant response rating,giant foxtail; [4],5
same,"Plant response rating, Giant foxtail",giant foxtail; [9],8
same,"Plant response rating, Giant foxtail",giant foxtail; [10],10
same,Giant foxtail plant response rating,giant foxtail; [11],0
same,Ducksalad plant response rating,duck salad; [12],2
same,Ducksalad plant response rating,duck salad; [1],0
same,Ducksalad plant response rating,duck salad; [14],0
same,Ducksalad plant response rating,duck salad; [15],3
same,Rice plant response rating,rice; [12],4
same,Rice plant response rating,rice; [1],0
same,Rice plant response rating,rice; [14],0
same,"Plant response rating, Rice",rice; [13],6
